Test results: publication PMC7026418, “The kinase polypharmacology landscape of clinical PARP inhibitors” (Scientific Reports, 2020)
Read-outs that look alike come from different tables or passages of the source.

Columns and labels:
Experiment in all cases: biochemical
Parameters in all cases: DiscoveRx KINOMEscan active site-directed competition binding; percent of control kinase bound to immobilised ligand
ARK5 = molecular target: T1, ARK5 (Homo sapiens, UniProt O60285)
T1 construct: gene NUAK1
T1 sequence (O60285 1-661): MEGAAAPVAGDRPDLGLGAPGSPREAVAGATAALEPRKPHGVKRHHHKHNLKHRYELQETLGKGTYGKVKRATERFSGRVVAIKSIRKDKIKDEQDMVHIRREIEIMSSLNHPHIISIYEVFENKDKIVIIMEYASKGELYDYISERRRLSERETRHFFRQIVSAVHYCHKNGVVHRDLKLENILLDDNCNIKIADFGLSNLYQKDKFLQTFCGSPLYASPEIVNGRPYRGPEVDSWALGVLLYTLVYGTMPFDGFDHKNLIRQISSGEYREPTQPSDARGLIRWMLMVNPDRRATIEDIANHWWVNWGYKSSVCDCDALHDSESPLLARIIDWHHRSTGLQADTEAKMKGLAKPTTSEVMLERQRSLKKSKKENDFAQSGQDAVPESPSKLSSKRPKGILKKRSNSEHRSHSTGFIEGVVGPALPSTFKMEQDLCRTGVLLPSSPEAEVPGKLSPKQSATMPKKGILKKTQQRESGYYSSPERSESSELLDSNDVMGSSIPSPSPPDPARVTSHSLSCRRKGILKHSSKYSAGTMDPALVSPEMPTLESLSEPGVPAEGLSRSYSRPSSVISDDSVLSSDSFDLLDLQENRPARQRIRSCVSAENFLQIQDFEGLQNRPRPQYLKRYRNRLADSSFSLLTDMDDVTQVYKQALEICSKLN

RET(V804L) = RET(V804L) (Homo sapiens, UniProt P07949, V804L)
EGFR(T790M) = EGFR(T790M) (Homo sapiens, UniProt P00533, T790M)
Sequence of EGFR(T790M) (P00533 whole entry T790M): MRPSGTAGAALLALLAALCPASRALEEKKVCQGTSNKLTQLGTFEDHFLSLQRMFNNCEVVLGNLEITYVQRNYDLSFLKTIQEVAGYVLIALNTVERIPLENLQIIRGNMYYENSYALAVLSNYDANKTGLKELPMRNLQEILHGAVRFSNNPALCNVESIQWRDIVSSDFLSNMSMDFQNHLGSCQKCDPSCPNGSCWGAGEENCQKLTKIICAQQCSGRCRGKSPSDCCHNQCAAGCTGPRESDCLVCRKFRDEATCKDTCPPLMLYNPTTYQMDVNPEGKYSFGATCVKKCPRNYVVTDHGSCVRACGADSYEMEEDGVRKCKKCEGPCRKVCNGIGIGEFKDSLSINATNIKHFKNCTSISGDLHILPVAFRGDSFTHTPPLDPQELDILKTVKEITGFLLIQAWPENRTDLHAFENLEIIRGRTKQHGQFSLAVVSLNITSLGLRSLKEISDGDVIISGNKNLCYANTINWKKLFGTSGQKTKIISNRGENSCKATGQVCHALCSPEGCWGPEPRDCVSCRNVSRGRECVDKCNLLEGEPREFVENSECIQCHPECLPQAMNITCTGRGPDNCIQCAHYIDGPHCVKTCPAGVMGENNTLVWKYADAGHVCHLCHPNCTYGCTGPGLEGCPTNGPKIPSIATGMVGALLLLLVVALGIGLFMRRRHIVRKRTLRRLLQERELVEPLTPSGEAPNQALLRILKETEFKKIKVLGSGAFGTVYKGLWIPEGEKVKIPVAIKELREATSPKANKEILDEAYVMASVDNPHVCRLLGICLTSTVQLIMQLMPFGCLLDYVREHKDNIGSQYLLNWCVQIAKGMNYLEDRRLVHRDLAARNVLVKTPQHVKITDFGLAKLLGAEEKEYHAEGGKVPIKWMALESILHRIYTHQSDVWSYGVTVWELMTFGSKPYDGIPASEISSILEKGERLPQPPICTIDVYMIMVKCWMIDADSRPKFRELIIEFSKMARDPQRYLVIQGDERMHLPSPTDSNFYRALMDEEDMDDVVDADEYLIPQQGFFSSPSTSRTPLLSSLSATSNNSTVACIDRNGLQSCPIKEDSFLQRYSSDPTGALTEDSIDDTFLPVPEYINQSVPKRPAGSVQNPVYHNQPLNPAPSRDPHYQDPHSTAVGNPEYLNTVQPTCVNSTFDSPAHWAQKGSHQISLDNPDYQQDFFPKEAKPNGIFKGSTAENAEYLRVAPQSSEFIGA

TNK2 = TNK2 (Homo sapiens, UniProt Q07912)
Sequence of TNK2 (Q07912 whole entry): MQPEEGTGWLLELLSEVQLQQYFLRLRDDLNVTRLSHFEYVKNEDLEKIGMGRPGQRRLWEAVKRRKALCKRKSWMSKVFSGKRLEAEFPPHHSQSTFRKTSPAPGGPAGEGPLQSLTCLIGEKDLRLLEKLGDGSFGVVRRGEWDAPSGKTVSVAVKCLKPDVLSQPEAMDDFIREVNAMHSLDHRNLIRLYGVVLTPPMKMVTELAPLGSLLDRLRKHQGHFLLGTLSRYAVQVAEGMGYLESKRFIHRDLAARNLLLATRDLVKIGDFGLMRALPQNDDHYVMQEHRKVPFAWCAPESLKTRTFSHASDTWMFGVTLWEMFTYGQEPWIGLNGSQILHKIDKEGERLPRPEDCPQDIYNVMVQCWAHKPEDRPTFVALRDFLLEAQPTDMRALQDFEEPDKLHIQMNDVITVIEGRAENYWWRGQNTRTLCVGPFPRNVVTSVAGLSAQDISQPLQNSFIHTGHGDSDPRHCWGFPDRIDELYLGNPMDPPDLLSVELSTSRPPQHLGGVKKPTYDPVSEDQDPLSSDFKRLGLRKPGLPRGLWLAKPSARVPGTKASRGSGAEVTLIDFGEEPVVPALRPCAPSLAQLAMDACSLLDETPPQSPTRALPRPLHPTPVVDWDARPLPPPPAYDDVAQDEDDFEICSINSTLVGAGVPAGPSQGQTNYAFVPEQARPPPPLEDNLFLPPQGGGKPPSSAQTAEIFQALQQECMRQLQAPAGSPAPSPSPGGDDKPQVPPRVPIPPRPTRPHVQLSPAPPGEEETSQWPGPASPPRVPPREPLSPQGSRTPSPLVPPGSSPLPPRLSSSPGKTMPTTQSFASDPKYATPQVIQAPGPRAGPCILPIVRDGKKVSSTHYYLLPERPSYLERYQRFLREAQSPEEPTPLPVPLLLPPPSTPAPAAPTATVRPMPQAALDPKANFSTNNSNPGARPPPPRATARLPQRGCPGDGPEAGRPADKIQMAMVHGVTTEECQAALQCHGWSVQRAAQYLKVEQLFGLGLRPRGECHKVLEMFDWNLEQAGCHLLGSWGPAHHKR

ALK(C1156Y) = ALK(C1156Y) (Homo sapiens, UniProt Q9UM73, C1156Y)
Sequence of ALK(C1156Y) (Q9UM73 whole entry C1156Y): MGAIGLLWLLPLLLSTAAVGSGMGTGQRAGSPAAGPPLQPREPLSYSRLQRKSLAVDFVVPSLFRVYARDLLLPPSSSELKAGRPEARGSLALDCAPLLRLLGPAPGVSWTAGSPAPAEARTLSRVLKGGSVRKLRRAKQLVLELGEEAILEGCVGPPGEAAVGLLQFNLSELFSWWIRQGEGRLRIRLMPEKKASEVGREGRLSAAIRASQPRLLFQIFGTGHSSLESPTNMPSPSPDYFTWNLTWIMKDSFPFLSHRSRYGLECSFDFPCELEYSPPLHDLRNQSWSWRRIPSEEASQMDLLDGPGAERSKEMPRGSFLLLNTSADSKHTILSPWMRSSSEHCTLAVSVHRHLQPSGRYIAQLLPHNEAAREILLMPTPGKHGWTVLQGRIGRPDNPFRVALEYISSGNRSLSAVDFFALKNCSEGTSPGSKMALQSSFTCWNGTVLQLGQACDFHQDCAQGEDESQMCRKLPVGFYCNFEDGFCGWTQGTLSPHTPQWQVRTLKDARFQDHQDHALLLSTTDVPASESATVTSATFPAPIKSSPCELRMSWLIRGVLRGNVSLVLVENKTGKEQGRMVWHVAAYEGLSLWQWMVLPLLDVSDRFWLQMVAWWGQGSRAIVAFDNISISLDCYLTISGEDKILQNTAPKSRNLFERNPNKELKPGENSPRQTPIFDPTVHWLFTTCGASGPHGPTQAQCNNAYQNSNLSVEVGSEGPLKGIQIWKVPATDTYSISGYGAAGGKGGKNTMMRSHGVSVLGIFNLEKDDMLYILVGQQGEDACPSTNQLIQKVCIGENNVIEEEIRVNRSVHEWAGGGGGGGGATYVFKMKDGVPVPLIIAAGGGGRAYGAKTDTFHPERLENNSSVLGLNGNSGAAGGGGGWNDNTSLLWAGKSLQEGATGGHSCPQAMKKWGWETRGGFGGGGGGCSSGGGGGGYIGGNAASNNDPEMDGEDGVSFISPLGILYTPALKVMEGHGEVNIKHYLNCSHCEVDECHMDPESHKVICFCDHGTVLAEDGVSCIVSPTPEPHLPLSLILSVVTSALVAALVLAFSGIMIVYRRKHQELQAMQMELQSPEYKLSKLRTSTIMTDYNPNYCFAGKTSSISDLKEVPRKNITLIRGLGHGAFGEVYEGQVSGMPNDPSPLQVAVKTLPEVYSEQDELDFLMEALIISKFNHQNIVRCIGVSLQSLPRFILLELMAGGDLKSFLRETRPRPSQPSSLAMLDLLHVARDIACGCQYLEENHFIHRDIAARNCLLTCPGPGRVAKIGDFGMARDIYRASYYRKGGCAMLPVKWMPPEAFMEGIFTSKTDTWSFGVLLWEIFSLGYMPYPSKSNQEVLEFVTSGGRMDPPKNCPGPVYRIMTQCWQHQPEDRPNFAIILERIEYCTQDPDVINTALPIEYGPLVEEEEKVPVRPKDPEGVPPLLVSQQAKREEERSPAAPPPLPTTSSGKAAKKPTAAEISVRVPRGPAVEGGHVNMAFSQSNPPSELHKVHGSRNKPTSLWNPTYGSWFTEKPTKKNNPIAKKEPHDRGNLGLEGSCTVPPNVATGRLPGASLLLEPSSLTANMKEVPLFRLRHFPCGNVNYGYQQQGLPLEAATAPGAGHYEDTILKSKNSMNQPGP

HIPK3 = HIPK3 (Homo sapiens, UniProt Q9H422)
MET(M1250T) = MET(M1250T) (Homo sapiens, UniProt P08581, M1250T)
DRAK2 = molecular target: T2, DRAK2 (Homo sapiens, UniProt O94768)
T2 construct: gene STK17B
T2 sequence (O94768 1-372): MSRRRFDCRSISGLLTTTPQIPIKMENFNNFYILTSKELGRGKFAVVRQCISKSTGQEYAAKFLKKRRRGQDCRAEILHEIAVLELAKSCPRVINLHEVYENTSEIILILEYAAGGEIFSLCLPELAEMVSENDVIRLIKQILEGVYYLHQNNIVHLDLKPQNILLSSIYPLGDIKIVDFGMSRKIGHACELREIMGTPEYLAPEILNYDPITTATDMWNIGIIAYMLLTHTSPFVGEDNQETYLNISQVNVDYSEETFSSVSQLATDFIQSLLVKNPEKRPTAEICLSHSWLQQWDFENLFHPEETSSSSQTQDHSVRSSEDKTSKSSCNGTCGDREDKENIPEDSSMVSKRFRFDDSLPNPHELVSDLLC

ERK1 = molecular target: T3, ERK1 (Homo sapiens, UniProt P27361)
T3 construct: gene MAPK3

DMPK = molecular target: T4, DMPK (Homo sapiens, UniProt Q09013)
T4 sequence (Q09013 1-629): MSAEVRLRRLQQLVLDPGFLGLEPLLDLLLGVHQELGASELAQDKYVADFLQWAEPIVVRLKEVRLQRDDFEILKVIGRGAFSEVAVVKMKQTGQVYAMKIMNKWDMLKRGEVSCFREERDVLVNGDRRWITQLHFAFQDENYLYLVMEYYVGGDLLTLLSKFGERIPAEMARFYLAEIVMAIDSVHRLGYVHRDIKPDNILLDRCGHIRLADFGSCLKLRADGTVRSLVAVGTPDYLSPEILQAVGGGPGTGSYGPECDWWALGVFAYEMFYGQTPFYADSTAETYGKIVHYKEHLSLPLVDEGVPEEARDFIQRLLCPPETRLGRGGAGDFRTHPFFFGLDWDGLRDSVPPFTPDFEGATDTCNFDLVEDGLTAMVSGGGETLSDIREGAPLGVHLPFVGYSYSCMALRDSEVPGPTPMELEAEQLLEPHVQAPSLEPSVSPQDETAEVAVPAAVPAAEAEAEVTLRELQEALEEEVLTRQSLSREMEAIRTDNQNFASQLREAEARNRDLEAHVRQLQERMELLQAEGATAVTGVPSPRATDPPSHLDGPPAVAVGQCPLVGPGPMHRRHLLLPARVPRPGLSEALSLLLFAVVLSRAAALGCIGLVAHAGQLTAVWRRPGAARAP

EGFR(L861Q) = EGFR(L861Q) (Homo sapiens, UniProt P00533, L861Q)
Sequence of EGFR(L861Q) (P00533 whole entry L861Q): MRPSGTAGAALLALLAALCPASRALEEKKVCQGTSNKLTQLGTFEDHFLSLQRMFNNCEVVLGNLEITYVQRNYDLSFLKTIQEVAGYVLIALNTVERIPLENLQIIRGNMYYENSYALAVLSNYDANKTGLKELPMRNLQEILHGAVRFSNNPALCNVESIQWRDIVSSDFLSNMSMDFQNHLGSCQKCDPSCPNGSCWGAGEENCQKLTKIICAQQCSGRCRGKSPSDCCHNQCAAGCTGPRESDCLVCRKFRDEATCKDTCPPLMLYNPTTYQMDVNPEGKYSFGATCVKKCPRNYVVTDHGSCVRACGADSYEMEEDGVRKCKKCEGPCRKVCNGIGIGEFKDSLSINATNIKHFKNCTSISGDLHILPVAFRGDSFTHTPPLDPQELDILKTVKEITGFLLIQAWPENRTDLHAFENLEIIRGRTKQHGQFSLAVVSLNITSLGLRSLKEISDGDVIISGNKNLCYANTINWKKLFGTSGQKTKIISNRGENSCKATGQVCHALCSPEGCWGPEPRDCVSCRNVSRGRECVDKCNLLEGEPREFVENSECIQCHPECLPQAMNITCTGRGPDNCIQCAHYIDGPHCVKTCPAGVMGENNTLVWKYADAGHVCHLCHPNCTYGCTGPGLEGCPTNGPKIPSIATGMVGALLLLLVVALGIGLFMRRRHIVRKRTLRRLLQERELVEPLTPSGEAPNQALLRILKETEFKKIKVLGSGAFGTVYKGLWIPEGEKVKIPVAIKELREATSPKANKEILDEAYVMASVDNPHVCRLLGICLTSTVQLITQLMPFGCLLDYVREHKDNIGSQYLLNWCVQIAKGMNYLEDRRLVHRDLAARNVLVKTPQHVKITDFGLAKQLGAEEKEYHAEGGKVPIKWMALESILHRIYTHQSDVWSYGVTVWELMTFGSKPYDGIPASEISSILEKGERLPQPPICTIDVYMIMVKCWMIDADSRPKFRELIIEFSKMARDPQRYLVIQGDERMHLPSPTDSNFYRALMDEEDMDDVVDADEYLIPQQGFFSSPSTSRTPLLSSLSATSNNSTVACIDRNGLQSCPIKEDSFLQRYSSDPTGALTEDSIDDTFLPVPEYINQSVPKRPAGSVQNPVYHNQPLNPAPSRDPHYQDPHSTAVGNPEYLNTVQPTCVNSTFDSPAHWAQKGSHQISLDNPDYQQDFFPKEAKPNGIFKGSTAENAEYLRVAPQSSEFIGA

[1] = molecular target: T5, RPS6KA5(Kin.Dom.2-C-terminal) (Homo sapiens, UniProt O75582)
T5 construct: Kin.Dom.2-C-terminal

[2] = read-out: Talazoparib (BMN 673) / %Ctrl @ 10000nM
[3] = read-out: Olaparib / %Ctrl @ 10000nM
[4] = read-out: Rucaparib / %Ctrl @ 10000nM, binding competition, % of control
[5] = read-out: Niraparib (MK-4827) / %Ctrl @ 10000nM

Cn1ncnc1[C@H]1c2n[nH]c(=O)c3cc(F)cc(c23)N[C@@H]1c1ccc(F)cc1 [Talazoparib]
percent of control binding at 10 µM (ARK5; [2]): 100%
percent of control binding at 10 µM (RET(V804L); [2]): 96%
percent of control binding at 10 µM (EGFR(T790M); [2]): 65%
percent of control binding at 10 µM (TNK2; [2]): 97%
percent of control binding at 10 µM (ALK(C1156Y); [2]): 100%
percent of control binding at 10 µM (HIPK3; [2]): 55%
percent of control binding at 10 µM (MET(M1250T); [2]): 99%
percent of control binding at 10 µM (DRAK2; [2]): 100%
percent of control binding at 10 µM (ERK1; [2]): 87%
percent of control binding at 10 µM (DMPK; [2]): 83%
percent of control binding at 10 µM (EGFR(L861Q); [2]): 82%
percent of control binding at 10 µM [1, 2]: 80%

O=C(c1cc(Cc2n[nH]c(=O)c3ccccc23)ccc1F)N1CCN(C(=O)C2CC2)CC1 [Olaparib]
percent of control binding at 10 µM (ARK5; [3]): 99%
percent of control binding at 10 µM (RET(V804L); [3]): 100%
percent of control binding at 10 µM (EGFR(T790M); [3]): 84%
percent of control binding at 10 µM (TNK2; [3]): 95%
percent of control binding at 10 µM (ALK(C1156Y); [3]): 88%
percent of control binding at 10 µM (HIPK3; [3]): 100%
percent of control binding at 10 µM (MET(M1250T); [3]): 99%
percent of control binding at 10 µM (DRAK2; [3]): 69%
percent of control binding at 10 µM (ERK1; [3]): 98%
percent of control binding at 10 µM (DMPK; [3]): 98%
percent of control binding at 10 µM (EGFR(L861Q); [3]): 91%
percent of control binding at 10 µM [1, 3]: 97%

CNCc1ccc(-c2[nH]c3cc(F)cc4c3c2CCNC4=O)cc1 [Rucaparib]
percent of control binding at 10 µM (ARK5; [4]): 100%
percent of control binding at 10 µM (RET(V804L); [4]): 95%
percent of control binding at 10 µM (EGFR(T790M); [4]): 75%
percent of control binding at 10 µM (TNK2; [4]): 100%
percent of control binding at 10 µM (ALK(C1156Y); [4]): 43%
percent of control binding at 10 µM (HIPK3; [4]): 18%
percent of control binding at 10 µM (MET(M1250T); [4]): 99%
percent of control binding at 10 µM (DRAK2; [4]): 98%
percent of control binding at 10 µM (ERK1; [4]): 100%
percent of control binding at 10 µM (DMPK; [4]): 100%
percent of control binding at 10 µM (EGFR(L861Q); [4]): 70%
percent of control binding at 10 µM [1, 4]: 77%

NC(=O)c1cccc2cn(-c3ccc([C@@H]4CCCNC4)cc3)nc12 [Niraparib]
percent of control binding at 10 µM (ARK5; [5]): 56%
percent of control binding at 10 µM (RET(V804L); [5]): 92%
percent of control binding at 10 µM (EGFR(T790M); [5]): 93%
percent of control binding at 10 µM (TNK2; [5]): 91%
percent of control binding at 10 µM (ALK(C1156Y); [5]): 88%
percent of control binding at 10 µM (HIPK3; [5]): 2.5%
percent of control binding at 10 µM (MET(M1250T); [5]): 91%
percent of control binding at 10 µM (DRAK2; [5]): 82%
percent of control binding at 10 µM (ERK1; [5]): 98%
percent of control binding at 10 µM (DMPK; [5]): 90%
percent of control binding at 10 µM (EGFR(L861Q); [5]): 88%
percent of control binding at 10 µM [1, 5]: 96%
